Blank lines part the entries; values can stand above or below the molecule they belong to. Active and inactive are the calls of the source.
Assays:
[1] = test system: HEK293; assay: NOD2 signaling inhibitors in MDP-stimulated cells, cell-based, uHTS, luminescence (AID 2001); assay type: functional; conditions: Homo sapiens
[2] = test system: HEK293; assay: cells; assay type: functional, cell-based; conditions: Homo sapiens
[3] = target: T1, Heat shock factor protein 1 (Mus musculus, UniProt P38532); assay: decrease of HSF1-responsive luciferase luminescence – cell-based, NIH3T3, dose retest, confirmation (AID 2382); assay type: functional;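 note: NIH3T3 fibroblasts with HSF1-driven luciferase reporter stressed by proteasome inhibitor MG132; luminescence from HSF1-driven luciferase expression after 8 hours of MG132 stress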
T1 sequence (P38532 whole entry): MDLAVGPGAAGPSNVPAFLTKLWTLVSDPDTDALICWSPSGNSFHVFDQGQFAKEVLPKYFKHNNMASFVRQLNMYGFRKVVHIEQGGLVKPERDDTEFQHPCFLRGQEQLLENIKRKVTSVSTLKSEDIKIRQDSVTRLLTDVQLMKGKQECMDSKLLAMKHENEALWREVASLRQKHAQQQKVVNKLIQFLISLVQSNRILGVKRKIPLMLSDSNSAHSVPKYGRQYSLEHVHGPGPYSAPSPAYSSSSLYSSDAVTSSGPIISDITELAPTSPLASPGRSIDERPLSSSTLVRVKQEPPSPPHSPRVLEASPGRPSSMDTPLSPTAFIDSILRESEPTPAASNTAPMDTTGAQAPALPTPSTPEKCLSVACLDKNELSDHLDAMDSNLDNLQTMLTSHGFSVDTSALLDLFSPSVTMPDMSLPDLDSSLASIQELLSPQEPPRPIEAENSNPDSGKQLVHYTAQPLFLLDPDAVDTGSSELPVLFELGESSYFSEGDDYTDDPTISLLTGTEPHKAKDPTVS

[4] = target: T2, Microphthalmia-associated transcription factor (Homo sapiens, UniProt O75030); assay: reducers of TRPM1 reporter luminescence, concentration series – cell-based, SK-MEL-5, cherry-picked, set 3, MITF inhibitor project, dose response (AID 493073); assay type: functional;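 note: SK-MEL-5 melanoma cells with luciferase driven by the MITF target TRPM1 promoter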
T2 sequence (O75030 whole entry): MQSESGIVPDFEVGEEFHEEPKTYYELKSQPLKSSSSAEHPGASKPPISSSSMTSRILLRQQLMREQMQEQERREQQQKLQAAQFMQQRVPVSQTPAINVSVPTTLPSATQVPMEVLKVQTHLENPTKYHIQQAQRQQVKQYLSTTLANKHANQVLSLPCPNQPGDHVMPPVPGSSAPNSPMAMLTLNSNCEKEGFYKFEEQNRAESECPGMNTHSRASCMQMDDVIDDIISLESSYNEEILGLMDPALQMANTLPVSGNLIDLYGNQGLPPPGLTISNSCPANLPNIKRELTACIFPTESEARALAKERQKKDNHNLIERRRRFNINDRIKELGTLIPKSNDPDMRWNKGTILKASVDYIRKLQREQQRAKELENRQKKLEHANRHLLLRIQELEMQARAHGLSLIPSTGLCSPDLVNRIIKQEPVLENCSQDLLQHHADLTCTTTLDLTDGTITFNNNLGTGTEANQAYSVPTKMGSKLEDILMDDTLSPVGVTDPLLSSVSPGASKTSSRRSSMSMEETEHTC

[5] = test system: HEK293; assay: cells; assay type: functional, cell-based; conditions: Homo sapiens; remark: listed apart in the source
[6] = test system: HEK293; assay: inhibition of NOD1-driven NF-kB reporter – cell-based, luminescence, uHTS, primary screen (AID 1578); assay type: functional; conditions: Homo sapiens
[7] = target: Nucleotide-binding oligomerization domain-containing protein 2 (Homo sapiens, UniProt Q9HC29); assay: inhibition of NOD2-driven NF-kB reporter – cell-based, luminescence, uHTS, HEK293 (AID 1566); assay type: functional
Sequence of Nucleotide-binding oligomerization domain-containing protein 2 (Q9HC29 whole entry, the tested form may be a part): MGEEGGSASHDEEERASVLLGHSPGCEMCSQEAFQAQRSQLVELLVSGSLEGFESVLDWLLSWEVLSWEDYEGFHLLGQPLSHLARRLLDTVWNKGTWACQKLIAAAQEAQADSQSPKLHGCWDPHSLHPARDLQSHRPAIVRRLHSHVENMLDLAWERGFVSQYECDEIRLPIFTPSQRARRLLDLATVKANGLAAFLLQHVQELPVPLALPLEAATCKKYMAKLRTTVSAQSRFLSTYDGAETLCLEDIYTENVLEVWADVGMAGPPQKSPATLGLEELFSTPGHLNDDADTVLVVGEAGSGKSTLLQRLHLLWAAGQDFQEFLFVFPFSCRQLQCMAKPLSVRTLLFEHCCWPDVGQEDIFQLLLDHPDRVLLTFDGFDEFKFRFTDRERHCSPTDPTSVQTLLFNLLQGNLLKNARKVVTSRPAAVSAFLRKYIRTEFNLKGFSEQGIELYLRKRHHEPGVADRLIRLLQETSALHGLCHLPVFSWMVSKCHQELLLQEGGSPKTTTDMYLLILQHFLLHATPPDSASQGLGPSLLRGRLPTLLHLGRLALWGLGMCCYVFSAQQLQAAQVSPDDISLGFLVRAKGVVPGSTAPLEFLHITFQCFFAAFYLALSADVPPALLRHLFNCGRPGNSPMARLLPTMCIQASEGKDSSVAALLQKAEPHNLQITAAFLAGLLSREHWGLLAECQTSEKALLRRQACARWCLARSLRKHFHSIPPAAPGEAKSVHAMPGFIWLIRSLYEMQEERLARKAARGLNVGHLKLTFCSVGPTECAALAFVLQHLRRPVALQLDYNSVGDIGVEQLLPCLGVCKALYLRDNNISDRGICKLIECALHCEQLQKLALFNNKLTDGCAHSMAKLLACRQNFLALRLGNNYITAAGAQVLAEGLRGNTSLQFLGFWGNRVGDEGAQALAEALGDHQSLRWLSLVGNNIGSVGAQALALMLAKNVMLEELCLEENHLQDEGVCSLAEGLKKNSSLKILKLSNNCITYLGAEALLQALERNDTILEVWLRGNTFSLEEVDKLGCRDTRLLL

[8] = test system: HEK293; assay: cells; assay type: functional, cell-based; conditions: Homo sapiens; remark: listed apart in the source
[9] = test system: Vero; assay: viability of Vero cells under compound – cytotoxicity control for flavivirus capping enzyme inhibitors (AID 588742); assay type: functional; conditions: Chlorocebus sabaeus
[10] = target: Genome polyprotein (dengue virus type 2, UniProt P29990); assay: flavivirus cap methylation enzyme inhibition – biochemical, confirmation dose response, primary screen (AID 588689); assay type: functional
Sequence of Genome polyprotein (P29990 2492-3391 limits assumed): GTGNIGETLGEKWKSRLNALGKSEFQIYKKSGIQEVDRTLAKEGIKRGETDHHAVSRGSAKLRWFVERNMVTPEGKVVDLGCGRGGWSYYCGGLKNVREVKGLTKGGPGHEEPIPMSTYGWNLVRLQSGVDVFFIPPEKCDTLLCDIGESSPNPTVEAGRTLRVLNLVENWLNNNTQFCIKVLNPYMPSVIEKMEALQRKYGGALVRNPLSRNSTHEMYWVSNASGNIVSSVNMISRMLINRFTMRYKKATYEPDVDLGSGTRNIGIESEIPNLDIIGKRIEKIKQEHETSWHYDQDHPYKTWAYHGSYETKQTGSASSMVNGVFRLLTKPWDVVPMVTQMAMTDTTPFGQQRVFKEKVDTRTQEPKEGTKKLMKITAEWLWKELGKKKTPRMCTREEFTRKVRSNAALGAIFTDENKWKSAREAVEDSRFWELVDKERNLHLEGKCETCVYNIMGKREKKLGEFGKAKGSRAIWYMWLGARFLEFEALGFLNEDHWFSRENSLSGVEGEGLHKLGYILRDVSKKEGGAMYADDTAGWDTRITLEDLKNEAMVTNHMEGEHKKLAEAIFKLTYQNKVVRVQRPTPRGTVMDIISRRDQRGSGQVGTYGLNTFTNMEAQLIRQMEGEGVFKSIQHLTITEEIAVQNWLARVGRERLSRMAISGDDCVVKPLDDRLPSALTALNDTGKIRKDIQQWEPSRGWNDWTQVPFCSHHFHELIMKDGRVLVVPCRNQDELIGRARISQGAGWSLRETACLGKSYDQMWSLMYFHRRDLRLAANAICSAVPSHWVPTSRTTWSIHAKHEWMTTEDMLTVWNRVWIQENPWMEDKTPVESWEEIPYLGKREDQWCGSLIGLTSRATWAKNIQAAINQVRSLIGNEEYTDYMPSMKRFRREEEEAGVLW

[11] = target: Glucose-6-phosphate 1-dehydrogenase (Homo sapiens, UniProt P11413); assay: inhibition of Homo sapiens G6PD, dose series – biochemical, fluorescence, selectivity assay for P. falciparum G6PD inhibitor project, dose response (AID 504792); assay type: functional
Sequence of Glucose-6-phosphate 1-dehydrogenase (P11413 whole entry): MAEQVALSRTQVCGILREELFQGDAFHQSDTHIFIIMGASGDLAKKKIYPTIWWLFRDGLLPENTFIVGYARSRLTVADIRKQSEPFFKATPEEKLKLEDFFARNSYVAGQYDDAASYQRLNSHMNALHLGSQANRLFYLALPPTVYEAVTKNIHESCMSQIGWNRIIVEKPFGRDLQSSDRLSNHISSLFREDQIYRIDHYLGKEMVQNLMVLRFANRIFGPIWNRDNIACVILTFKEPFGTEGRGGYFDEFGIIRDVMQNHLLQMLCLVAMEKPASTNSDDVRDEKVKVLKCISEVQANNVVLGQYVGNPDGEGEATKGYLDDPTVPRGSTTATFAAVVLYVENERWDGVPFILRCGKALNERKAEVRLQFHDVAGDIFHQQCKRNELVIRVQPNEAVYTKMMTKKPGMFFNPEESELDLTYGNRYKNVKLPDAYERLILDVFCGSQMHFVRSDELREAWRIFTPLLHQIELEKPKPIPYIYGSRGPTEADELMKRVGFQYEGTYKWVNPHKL

[12] = target: CAAX prenyl protease 2 (Saccharomyces cerevisiae S288c, UniProt Q03530); assay type: biochemical
Sequence of CAAX prenyl protease 2 (Saccharomyces cerevisiae S288c, UniProt Q03530) (Q03530 whole entry): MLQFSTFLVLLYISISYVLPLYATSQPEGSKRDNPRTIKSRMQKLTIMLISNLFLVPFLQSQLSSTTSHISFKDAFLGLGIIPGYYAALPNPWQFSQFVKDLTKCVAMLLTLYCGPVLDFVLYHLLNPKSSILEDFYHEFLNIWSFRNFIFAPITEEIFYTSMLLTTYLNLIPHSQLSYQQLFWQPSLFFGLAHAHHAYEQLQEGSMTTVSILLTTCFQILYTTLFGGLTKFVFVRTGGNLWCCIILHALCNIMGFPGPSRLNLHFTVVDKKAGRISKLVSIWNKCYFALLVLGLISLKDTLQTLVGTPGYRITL

[13] = target: Trypsin (Sus scrofa, UniProt P00761); assay: trypsin protease activity blockade – biochemical, quenched peptide fluorescence, cherry-pick, selectivity assay for Rce1 protease inhibitor project, dose response (AID 488789)
Sequence of Trypsin (P00761 whole entry): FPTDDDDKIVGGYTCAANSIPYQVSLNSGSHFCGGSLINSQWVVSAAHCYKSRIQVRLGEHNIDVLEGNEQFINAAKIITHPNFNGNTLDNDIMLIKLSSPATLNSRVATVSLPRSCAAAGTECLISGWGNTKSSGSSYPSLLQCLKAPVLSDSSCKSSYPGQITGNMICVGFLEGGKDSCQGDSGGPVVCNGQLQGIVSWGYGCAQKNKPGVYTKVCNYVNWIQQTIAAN

[14] = target: CAAX prenyl protease 2 (Homo sapiens, UniProt Q9Y256); assay: inhibition of Ras-converting CAAX protease Rce1 – biochemical, yeast membranes, quenched-peptide fluorescence, cherry-pick, dose response (AID 588849)
Sequence of CAAX prenyl protease 2 (Homo sapiens, UniProt Q9Y256) (Q9Y256 whole entry): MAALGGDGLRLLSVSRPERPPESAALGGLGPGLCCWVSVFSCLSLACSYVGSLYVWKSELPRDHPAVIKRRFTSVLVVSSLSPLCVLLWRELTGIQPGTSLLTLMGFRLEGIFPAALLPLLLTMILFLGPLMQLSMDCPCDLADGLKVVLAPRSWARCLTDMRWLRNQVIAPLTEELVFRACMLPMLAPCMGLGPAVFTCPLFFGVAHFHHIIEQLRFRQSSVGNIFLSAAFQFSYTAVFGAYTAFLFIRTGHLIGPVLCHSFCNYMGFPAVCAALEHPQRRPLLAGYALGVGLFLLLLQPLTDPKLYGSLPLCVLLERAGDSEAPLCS

[15] = target: T3, Serine/threonine-protein phosphatase (Candida dubliniensis (strain CD36 / CBS 7987 / NCPF 3949 / NRRLY-17841) (Yeast), UniProt B9W6M3); assay: Fluorescence Cell-Based Secondary Assay to Identify Inhibitors of Calcineurin. [Related pubchem assays (depositor defined):AID1979, AID2007]; assay type: functional
T3 sequence (B9W6M3 whole entry): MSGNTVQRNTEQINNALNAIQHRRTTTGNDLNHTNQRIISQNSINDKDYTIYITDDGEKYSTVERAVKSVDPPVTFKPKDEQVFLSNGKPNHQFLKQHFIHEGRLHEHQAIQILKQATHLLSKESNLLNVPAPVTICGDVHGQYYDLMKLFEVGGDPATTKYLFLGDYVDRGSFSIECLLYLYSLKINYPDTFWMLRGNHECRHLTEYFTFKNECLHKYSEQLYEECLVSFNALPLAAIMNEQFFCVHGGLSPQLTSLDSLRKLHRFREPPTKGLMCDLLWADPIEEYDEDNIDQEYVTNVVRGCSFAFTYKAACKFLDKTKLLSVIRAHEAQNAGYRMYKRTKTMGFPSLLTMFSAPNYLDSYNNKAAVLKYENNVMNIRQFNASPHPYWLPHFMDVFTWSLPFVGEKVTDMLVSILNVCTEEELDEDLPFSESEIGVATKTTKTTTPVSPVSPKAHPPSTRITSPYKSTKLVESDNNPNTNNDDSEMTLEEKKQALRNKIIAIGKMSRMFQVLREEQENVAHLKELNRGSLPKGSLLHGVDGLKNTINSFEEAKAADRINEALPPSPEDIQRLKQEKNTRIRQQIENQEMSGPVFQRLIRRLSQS

[16] = Trypanosoma cruzi growth suppression in host cells – NIH3T3 host cells, beta-gal luminescence, confirmation (AID 2044); assay type: functional, cell-based;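 note: intracellular parasites grown in NIH/3T3 mouse fibroblasts as host cells; luminescent beta-galactosidase reporter signal from transgenic T. cruzi replicating inside host cells; inhibitors lower the luminescence signal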
[17] = NIH3T3 cell viability loss – ATP luminescence, mouse fibroblasts, counter-screen, dose response (AID 2010); assay type: functional, cell-based;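 note: cells exposed to compound for about 90 hours before reading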
[18] = target: G-protein coupled receptor 35 (Homo sapiens, UniProt Q9HC97); assay: inhibition of zaprinast-stimulated GPR35 beta-arrestin translocation – imaging, U2OS, beta-arrestin-GFP, zaprinast agonist, primary screen (AID 2058); assay type: functional;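 note: antagonist potency meaning inhibition of agonist-induced arrestin redistribution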
Sequence of G-protein coupled receptor 35 (Q9HC97 whole entry): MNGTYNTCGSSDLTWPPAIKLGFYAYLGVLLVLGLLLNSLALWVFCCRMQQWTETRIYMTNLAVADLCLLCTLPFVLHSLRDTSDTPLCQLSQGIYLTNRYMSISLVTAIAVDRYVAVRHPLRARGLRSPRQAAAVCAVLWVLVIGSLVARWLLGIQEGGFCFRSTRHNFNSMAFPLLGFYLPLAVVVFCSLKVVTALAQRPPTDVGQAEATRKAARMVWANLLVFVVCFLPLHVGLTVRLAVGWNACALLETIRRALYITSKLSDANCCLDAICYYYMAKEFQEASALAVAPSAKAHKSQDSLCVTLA

[19] = NIH-3T3 fibroblast cytotoxicity, dose response, cytotoxicity control, cell-based, fluorescence, Alamar Blue, secondary assay (AID 2327); assay type: functional;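 note: NIH-3T3 mouse fibroblasts cultured with fluconazole at 8 µg/mL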
[20] = fluconazole-exposed Candida albicans growth modulators – fluorescence, retest, confirmation (AID 2467); assay type: functional, cell-based
[21] = target: G-protein coupled receptor 55 (Homo sapiens, UniProt Q9Y2T6); assay: blockers of GPR55 signalling, imaged – imaging, image-based, counter-screen for GPR35 antagonist project, SAR follow-up (AID 2397); assay type: functional
Sequence of G-protein coupled receptor 55 (Q9Y2T6 whole entry): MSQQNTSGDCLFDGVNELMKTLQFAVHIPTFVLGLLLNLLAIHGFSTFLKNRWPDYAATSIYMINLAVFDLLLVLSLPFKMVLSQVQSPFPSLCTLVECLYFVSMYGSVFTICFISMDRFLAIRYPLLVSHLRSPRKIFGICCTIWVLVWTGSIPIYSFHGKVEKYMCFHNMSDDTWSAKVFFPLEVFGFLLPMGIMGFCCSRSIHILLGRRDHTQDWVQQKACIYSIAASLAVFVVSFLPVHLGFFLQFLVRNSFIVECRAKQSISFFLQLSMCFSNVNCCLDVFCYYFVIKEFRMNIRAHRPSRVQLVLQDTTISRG

[22] = target: FAD-linked sulfhydryl oxidase ALR (Homo sapiens, UniProt P55789); assay: ALR-catalysed DTT oxidation blockers – biochemical, H2O2 detection, luminescence, cherry-pick, dose response (AID 493248)
Sequence of FAD-linked sulfhydryl oxidase ALR (P55789 whole entry): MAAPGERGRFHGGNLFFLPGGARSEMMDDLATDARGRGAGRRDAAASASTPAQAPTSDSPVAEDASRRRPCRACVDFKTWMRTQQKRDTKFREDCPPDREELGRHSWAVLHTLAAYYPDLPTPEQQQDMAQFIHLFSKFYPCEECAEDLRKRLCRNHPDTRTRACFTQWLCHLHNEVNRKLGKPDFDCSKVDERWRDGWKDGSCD

[23] = restored growth of temperature-sensitive Burl-1 yeast – whole organism, S. cerevisiae, Burl-1 ts mutant, luminescence, counter-screen for SUMOylation pathway inhibitor project, dose response (AID 463199); assay type: functional

Structure (SMILES): O=C(CCl)Nc1ccc(Sc2ccc(NC(=O)CCl)cc2)cc1
IC50 [1]: 2.71 µM (active)
IC50 [2]: > 20 µM (inactive)
EC50 [3]: 3.68 µM (active)
AC50 [4]: 5.98 µM (active)
IC50 [5]: 10.2 µM (active)
EC50 [6]: 10.1 µM (active)
EC50 [7]: 18.8 µM (active)
IC50 [8]: 1.62 µM (active)

Structure (SMILES): COc1cc(CN2CCCC(C(=O)c3ccc4c5c(cccc35)CC4)C2)cc(OC)c1O (stereo not drawn)
CC50 [9]: > 40 µM (active)
IC50 [10]: 97.7 µM (active)
IC50 [11]: 24.3 µM (inactive)

AC50 [12]: 26.9 µM (active)
AC50 [13]: 80.3 µM (active)
AC50 [14]: 7.98 µM (active)
Structure (SMILES): COC(=O)C1=CNC=C(C(=O)OC)C1c1cccc2ccccc12

EC50 [15]: > 285 µM (inactive)
Structure (SMILES): O=C1/C(=C\c2ccccc2)CCc2c1[nH]c1ccccc21

Structure (SMILES): Cc1ccc2[nH]c(C)c(/C=C/c3cc[n+](C)cc3)c2c1
EC50 [16]: 0.725 µM (active)
EC50 [17]: > 30 µM (not active)
IC50 [18]: 1.62 µM (active)
EC50 [19]: > 150 µM (inactive)
EC50 [20]: 1.45 µM (active)
IC50 [21]: 1.57 µM (active)

AC50 [22]: 1.55 µM (active)
Structure (SMILES): O=C(O)CCc1ccc(-c2cccs2)n1NC(=O)c1cccs1
AC50 [23]: 183 µM (active)

— ChEMBL document CHEMBL1201862, “PubChem BioAssay data set” (2004)
